Results reported in patent US9895344B2, “Treating various disorders with 7,8-dihydroxyflavone and derivatives thereof” (EMORY UNIVERSITY, priority 2008, dated 2018).

How the values were obtained:
[1] = test system: immobility; assay: Forced swim test, 5 days intraperitoneal; format: in vivo, mice; details: intraperitoneally for 5 days; imipramine 20 mg/kg, amitryptyline 15 mg/kg, 7,8-dihydroxyflavone 5 mg/kg; FIG. 25
Method: Adult male mice (2-3 months old, n=8) were randomly submitted, without a pre-swim, to a forced swim test of 6 minutes with immobility recorded in the last 4 minutes. Mice were injected intraperitoneally for 5 days with saline, imipramine (20 mg/kg), amitryptyline (15 mg/kg), or 7,8-dihydroxyflavone (5 mg/kg). The mice were allowed to adapt to the test room for 2 days, and the mice were placed in a clear glass cylinder with a diameter of 16 cm, half-filled with clear water at 24° C. […] Data are presented as mean±SEM; *p<0.05 against vehicle, **P<0.01 against vehicle and ***P<0.0001 against vehicle, student t-test.

[2] = target: T1, TrkB F616A (Mus musculus, UniProt P15209, F616A); assay: TrkB phosphorylation in cortical neurons from TrkB F616A knockin mice; format: cell-based; details: inhibitor 100 nM, pretreated 30 minutes
T1 construct: endogenous in cells; host or cells: cortical neurons of TrkB F616A knock-in mice
T1 sequence (P15209 32-821 F616A): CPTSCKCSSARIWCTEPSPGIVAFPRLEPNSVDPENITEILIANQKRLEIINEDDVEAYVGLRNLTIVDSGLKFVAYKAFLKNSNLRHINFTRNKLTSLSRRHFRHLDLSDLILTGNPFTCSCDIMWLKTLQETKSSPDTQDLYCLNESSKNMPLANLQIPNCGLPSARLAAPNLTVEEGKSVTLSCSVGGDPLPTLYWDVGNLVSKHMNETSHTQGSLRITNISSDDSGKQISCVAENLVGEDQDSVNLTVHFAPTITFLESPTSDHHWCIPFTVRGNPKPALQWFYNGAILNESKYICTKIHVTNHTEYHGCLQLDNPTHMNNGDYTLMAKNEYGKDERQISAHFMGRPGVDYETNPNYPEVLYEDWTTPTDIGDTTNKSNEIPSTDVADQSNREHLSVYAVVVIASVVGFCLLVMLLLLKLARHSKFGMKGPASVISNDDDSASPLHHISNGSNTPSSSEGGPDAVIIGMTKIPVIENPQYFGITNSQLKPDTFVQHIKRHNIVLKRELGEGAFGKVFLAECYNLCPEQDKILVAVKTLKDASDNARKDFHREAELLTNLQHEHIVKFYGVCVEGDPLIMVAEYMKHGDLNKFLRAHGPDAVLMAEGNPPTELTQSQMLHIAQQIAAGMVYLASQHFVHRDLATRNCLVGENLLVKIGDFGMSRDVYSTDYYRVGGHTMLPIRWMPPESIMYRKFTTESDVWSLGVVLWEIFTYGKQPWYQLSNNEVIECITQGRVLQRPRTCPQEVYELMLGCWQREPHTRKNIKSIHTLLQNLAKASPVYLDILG
Method: (§1) To explore whether the neuroprotective action of 7,8-dihydroxyflavone is dependent on TrkB activation in vivo, TrkB F616A knockin mice were used. […] To further assess whether 7,8-dihydroxyflavone can mimic BDNF, cortical neurons were prepared from TrkB F616A knockin mice. The cortical neurons were pretreated for 30 minutes with either K252a Trk tyrosine kinase inhibitor (100 nM) or 1NMPP1 inhibitor (100 nM) followed by 0.5 μM 7,8-dihydroxyflavone for 30 minutes.

[3] = test system: Akt and Erk1/2; assay: Akt and Erk1/2 activation in cortical neurons from TrkB F616A knockin mice; format: cell-based; details: inhibitor 100 nM
Method: as §1

[4] = target: TrkB (Rattus norvegicus, UniProt Q63604); assay: Western analysis of TrkB activation in hippocampal neurons; format: cell-based; parameters: endogenous in cells; host or cells: primary hippocampal neurons; details: FIG. 10
TrkB, sequence (Q63604 32-821): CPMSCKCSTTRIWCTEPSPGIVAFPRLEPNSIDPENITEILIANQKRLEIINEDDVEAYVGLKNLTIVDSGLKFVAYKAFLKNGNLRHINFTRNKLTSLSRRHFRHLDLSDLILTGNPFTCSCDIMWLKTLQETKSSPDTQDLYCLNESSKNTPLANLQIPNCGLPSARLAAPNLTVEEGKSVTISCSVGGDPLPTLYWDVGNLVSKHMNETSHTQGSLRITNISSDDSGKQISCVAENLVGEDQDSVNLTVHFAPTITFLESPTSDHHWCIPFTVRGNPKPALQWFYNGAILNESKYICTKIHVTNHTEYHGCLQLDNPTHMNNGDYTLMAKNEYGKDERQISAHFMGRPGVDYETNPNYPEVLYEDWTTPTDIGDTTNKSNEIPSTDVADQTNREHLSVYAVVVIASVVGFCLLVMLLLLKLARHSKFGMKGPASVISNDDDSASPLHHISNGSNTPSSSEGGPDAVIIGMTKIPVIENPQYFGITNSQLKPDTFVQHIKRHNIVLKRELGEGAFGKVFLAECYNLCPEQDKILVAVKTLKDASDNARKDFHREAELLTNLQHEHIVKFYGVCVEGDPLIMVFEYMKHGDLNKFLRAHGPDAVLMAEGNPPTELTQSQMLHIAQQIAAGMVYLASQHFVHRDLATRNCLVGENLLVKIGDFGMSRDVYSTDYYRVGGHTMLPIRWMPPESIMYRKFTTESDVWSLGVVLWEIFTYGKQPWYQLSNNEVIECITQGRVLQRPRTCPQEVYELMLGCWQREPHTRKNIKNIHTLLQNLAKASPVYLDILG
Method: To further examine whether 7,8-dihydroxyflavone can stimulate TrkB-mediated downstream signaling cascades, Western analysis was performed.
To further test that the stimulatory effect of 7,8-dihydroxyflavone is mediated through TrkB, cells were either untreated or treated with K252a, a selective inhibitor of the tyrosine kinase activity of the Trk family of neutrophin receptors.

| SMILES | swimming immobility [1] | blocking of BDNF-provoked TrkB phosphorylation [2] | blocking of 7,8-dihydroxyflavone-provoked TrkB phosphorylation ([2]; 0.5 μM 7,8-dihydroxyflavone) | blocking of BDNF-triggered Akt and Erk1/2 activation [3] | effect on TrkB tyrosine phosphorylation in cells exposed to 7,8-dihydroxyflavone [4] |
| --- | --- | --- | --- | --- | --- |
| CN(C)CCCN1c2ccccc2CCc2ccccc21 [imipramine] | decreased |  |  |  |  |
| COC(=O)[C@@]1(O)C[C@H]2O[C@]1(C)n1c3ccccc3c3c4c(c5c6ccccc6n2c5c31)C(=O)NC4 [K252a] |  | not | not | not | blocked TrkB tyrosine phosphorylation |
| CN(C)CCC=C1c2ccccc2CCc2ccccc21 [amitryptyline] | decreased |  |  |  |  |
